“Also recorded” adds a separate entry of the source. Where two headings read alike, the source gives them in different places.
Assays:
[1] = tested on: reserpine-induced akinesia; assay: Reserpine-induced akinesia model of Parkinson's disease; type: in vivo; conditions: rat, 75 nmol icv, reserpine 5 mg/kg sc, beam breaks/30 min
Protocol: Behavior: Third ventricle cannulated male Sprague-Dawley rats (250-350) were purchased from Taconic Farms (Germantown, N.Y.) with guide cannula implanted such that subsequent placement of an injection cannula allowed for infusion into the third ventricle. These rats were used for intracerebral ventricular (icy) injection of test compounds within one week of arrival to the testing facility. All experiments were carried out during the light cycle (6.00-18.00).
Rats were injected with reserpine (5 mg/kg sc, dissolved in 1% acetic acid) and kept in their home cages for 1.5-2 hr post-injection. Activity was measured by placing rats in photocell activity cages (Hamilton-Kinder, Inc., Poway, Calif.) equipped with 16×16 infrared beams. […] Five min following the injection of test compound or vehicle, motor activity was recorded for an additional 30 min for each rat. Motor activity (cumulative beam breaks/30-min period) was recorded both pre- and post-drug treatment for each rat. […] Post hoc comparisons were performed using the Bonferroni test. Statistical significance was achieved when p<0.05. Data are expressed as mean +/− one SEM.

human mGluR4 [2] = target: T1, human mGluR4 (Homo sapiens, UniProt Q14833); assay: FLIPR Ca2+ flux assay in mGluR4 CHO cells
Protocol: (§1) Cells expressing mGluR2, mGluR4, mGluR7 and mGluR8 were coexpressed with Gα16, Gαqi5, Gα15 and Gα15, respectively. Cells were evaluated using a fluorometric imaging plate reader (FLIPR, Molecular Devices, Sunnyvale, Calif.), to measure their ability to mobilize Ca^2+ in response to appropriate agonists (i.e., glutamate and L-AP4).
(§2) CHO or HEK cells expressing mGluR receptors (mGluR CHO or HEK cells) were plated (50,000-70,000 cells/well) in clear-bottomed, poly-D-lysine-coated plates (Becton-Dickinson) in glutamate/glutamine-free medium. The plated cells were grown overnight at 37° C. in the presence of 6% CO2. The following day, the cells were washed with 3×100 μl assay buffer (Hanks Balanced Salt Solution containing 20 mM HEPES, 2.5 mM probenecid, and 0.1% bovine serum albumin) using a Skatron Embla cell washer. The cells were incubated with 1 μM Fluo-4AM (Molecular Probes, Eugene, Oreg.) for 1 h at 37° C. and 6% CO2. The extracellular dye was removed by washing as described above. […] Ca^2+ flux was measured using a FLIPR.

[3] = tested on: Schaffer collateral-CA1 (SC-CA1) synapse (mGluR7); assay: Hippocampal field recordings (fEPSPs), SC-CA1 synapse; parameters: species or system rat; conditions: submaximal L-AP4; fEPSP slope
any other mGluR subtype = assay: FLIPR Ca2+ flux assay, other mGluR subtypes (activation or potentiation); type: cell-based; conditions: 10 μM
striato-pallidal synapse = assay: Brain slice whole-cell patch-clamp, evoked IPSCs at striato-pallidal synapse; parameters: species or system rat; conditions: for effect on striato-pallidal transmission, compound alone: L-AP4 1 μM, PHCCC 30 μM, rat brain slice
Protocol: Animals: All studies were performed in an AAALAC accredited facility in accordance with all applicable guidelines regarding the care and use of animals. Animals were group housed with access to food and water ad libitum. Slice Preparation: All experiments were performed on slices from 26 to 30-d-old Sprague Dawley rats (Taconic, Germantown, N.Y.). Animals were killed by decapitation and brains were rapidly removed and submerged in an ice-cold solution containing (in mM): choline chloride 126, KCl 2.5, NaH2PO4 1.2, MgCl2 1.3, MgSO4 8, glucose 10, and NaHCO3 26, equilibrated with 95% O2/5% CO2 (11). The brain was glued to the chuck of a vibrating blade microtome (Leics Microsystems, Nussloch GmbH) and parasagittal slices (300 μm thick) were obtained. Slices were immediately transferred to a 500 ml holding chamber containing artificial cerebrospinal fluid (in mM): NaCl 124, KCl 2.5, MgSO4 1.3, NaH2PO4 1.0, CaCl2 2, glucose 20, and NaHCO3 26, equilibrated with 95% O2/5% CO2 that was maintained at 32° C. After 20-min at 32° C., the holding chamber was allowed to gradually decrease to room temperature. In all experiments 5 μM glutathione, 500 μM pyruvate, and 250 μM kynurenic acid were included in the choline chloride buffer and in the holding chamber ACSF. Electrophysiology: Whole-cell patch-clamp recordings were obtained (Marino et al., (2001) J. Neurosci. 21: 7001-7012. During recording, slices were maintained fully submerged on the stage of a 1 ml brain slice chamber at 32° C. and perfused continuously with equilibrated ACSF (2-3 ml/min). Neurons were visualized using a differential interference contrast microscope and an infrared video system. Patch electrodes were pulled from borosilicate glass on a two-stage puller and had resistances in the range of 3-7 MΩ when filled with the following internal solution: (in mM): potassium gluconate 125, NaCl 4, NaH2PO4 6, CaCl2 1, MgSO4 2, BAPTA-tetrapotassium salt 10, HEPES 10, Mg-ATP 2, Na2-GTP 0.3, pH=7.4. All recordings were done using HEKA EPC9 patch clamp amplifiers (HEKA Elektronik, Lambrecht/Pfalz, Germany). […]

mGluR4 = assay: FLIPR Ca2+ flux assay in mGluR4 CHO cells; conditions: in the presence of 10 μM PHCCC
Protocol: as §1, §2

[4] = tested on: lateral perforant path-dentate gyrus (LPP-DG) synapse (mGluR8); assay: Hippocampal field recordings (fEPSPs), LPP-DG synapse; parameters: species or system rat; conditions: submaximal L-AP4; fEPSP slope
mGluR8 = target: T2, mGluR8 (Homo sapiens, UniProt O00222); assay: FLIPR Ca2+ flux assay, mGluR8 antagonism; type: cell-based; conditions: 10 μM
T2 construct: expressed in transfected cells; host or cells: CHO or HEK cells, co-expressing Gα15

mGluR1b = target: T3, mGluR1b (Homo sapiens, UniProt Q13255); assay: FLIPR Ca2+ flux assay, mGluR1b antagonism; type: cell-based; conditions: 10 μM
T3 construct: expressed in transfected cells; host or cells: CHO or HEK cells

mGluR5a = target: T4, mGluR5a (Homo sapiens, UniProt P41594); assay: FLIPR Ca2+ flux assay, mGluR5a antagonism; type: cell-based; conditions: 10 μM
T4 construct: expressed in transfected cells; host or cells: CHO or HEK cells

mGluR2 = target: T5, mGluR2 (Homo sapiens, UniProt Q14416); assay: FLIPR Ca2+ flux assay, mGluR2 antagonism; type: cell-based; conditions: 10 μM
T5 construct: expressed in transfected cells; host or cells: CHO or HEK cells, co-expressing Gα16

human mGluR4 [5] = target: T1, human mGluR4; assay: FLIPR Ca2+ flux assay, human mGluR4; type: cell-based; parameters: expressed in transfected cells; host or cells: CHO or HEK cells, co-expressing Gαqi5; conditions: n=3, read-out: EC50 for L-AP4 activation of human mGluR4
Target sequence in this assay (Q14833 33-912): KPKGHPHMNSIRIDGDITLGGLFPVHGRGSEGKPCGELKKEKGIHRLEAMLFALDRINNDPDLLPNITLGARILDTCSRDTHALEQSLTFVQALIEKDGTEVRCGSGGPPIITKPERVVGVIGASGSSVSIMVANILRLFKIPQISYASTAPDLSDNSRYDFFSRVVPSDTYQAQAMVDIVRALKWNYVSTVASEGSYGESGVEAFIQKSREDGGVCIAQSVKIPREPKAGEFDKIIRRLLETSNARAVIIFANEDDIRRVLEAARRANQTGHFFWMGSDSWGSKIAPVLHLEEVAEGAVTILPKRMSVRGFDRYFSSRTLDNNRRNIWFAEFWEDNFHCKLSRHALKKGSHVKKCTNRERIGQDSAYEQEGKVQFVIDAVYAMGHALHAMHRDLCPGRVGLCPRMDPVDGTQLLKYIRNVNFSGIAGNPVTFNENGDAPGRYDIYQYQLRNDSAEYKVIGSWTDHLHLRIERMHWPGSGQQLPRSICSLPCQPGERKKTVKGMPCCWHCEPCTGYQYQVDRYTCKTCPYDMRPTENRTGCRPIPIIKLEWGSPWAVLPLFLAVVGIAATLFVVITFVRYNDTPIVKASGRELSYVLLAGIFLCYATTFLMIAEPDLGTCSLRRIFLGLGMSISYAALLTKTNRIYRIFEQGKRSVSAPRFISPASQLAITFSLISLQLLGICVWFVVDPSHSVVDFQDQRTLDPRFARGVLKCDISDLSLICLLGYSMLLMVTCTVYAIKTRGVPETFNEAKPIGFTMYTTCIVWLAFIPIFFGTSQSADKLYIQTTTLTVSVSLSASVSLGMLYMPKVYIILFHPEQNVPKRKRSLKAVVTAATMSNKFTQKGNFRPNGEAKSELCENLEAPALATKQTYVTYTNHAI
Protocol: as §1, §2

rat mGluR4 = target: T6, rat mGluR4 (Rattus norvegicus, UniProt P31423); assay: FLIPR Ca2+ flux assay, rat mGluR4; type: cell-based; conditions: n=3, read-out: EC50 for L-AP4 activation of rat mGluR4
T6 construct: expressed in transfected cells; host or cells: CHO or HEK cells, co-expressing Gαqi5
T6 sequence (P31423 33-912): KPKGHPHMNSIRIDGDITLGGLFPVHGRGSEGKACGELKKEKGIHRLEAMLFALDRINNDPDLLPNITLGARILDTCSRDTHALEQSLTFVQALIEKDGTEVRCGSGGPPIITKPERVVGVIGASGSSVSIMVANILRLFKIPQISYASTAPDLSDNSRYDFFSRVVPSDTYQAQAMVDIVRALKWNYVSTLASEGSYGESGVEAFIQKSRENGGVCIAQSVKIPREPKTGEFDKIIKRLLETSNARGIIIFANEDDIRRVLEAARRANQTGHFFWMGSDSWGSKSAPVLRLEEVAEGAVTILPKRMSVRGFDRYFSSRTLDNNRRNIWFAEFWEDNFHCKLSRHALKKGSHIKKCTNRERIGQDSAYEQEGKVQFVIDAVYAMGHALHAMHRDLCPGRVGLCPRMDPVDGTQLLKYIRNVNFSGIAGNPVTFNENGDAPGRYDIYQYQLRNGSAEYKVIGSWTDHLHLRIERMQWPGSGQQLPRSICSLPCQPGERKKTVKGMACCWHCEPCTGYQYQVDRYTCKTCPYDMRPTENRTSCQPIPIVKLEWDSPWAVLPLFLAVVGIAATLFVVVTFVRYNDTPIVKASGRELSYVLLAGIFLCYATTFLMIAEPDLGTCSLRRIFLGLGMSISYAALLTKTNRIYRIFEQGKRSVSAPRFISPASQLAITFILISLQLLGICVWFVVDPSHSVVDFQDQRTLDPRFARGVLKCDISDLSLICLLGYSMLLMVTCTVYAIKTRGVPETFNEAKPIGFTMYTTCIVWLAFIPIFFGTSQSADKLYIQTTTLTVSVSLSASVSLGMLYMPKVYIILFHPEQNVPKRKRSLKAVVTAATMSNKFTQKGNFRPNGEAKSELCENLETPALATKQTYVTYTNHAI

T4 sequence (P41594 21-1180 isoform P41594-2 limits assumed): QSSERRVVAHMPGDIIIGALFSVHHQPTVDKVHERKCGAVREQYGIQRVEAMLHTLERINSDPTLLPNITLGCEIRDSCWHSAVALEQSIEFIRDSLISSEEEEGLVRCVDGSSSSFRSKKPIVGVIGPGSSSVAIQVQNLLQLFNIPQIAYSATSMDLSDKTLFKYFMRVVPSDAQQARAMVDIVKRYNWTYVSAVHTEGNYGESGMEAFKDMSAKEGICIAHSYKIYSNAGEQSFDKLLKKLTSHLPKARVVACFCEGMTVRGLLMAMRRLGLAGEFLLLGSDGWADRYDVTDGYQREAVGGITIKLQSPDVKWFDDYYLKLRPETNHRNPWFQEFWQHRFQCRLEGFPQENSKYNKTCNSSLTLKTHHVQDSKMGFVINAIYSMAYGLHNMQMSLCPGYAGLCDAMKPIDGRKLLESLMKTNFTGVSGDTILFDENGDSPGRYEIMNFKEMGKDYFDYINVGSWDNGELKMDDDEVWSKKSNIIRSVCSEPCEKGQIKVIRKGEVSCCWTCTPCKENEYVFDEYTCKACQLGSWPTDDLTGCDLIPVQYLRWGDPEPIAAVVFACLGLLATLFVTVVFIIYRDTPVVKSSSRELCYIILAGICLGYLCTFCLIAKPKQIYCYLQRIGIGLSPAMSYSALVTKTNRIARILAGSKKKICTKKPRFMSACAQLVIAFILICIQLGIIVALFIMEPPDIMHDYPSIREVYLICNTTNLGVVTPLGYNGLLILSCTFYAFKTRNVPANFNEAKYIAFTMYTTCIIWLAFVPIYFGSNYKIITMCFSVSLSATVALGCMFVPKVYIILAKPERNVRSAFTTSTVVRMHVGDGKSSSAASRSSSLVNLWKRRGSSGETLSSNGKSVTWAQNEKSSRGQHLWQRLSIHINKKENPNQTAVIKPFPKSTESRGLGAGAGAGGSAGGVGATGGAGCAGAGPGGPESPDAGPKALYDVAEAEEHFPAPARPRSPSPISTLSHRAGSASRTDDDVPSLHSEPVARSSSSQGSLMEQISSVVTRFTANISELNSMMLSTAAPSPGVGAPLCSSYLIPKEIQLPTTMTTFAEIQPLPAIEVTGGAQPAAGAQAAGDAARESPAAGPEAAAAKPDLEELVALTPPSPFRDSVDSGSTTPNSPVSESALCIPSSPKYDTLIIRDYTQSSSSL
T2 sequence (O00222 34-908, species assumed): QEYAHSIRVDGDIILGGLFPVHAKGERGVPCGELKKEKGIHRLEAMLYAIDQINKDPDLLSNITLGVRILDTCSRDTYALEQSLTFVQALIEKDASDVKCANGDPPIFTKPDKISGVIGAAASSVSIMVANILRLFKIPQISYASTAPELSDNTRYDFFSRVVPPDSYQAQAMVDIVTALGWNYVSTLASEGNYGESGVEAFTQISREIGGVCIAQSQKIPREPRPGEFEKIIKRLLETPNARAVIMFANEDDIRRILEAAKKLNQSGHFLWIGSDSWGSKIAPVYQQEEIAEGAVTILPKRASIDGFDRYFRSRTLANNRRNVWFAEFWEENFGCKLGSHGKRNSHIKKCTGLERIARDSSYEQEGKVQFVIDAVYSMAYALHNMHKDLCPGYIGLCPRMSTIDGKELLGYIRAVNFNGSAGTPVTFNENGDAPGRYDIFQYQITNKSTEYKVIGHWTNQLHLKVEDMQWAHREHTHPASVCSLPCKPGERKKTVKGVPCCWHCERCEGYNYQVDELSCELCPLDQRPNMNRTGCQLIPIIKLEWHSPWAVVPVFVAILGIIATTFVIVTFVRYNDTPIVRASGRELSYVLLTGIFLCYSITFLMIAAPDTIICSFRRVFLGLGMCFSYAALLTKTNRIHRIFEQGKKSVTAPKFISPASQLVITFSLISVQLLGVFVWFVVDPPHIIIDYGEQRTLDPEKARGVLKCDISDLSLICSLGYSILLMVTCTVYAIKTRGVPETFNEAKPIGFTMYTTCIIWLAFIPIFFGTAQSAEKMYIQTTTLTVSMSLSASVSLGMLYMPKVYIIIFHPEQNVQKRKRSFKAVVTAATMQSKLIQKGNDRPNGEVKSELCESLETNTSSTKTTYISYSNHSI
T5 sequence (Q14416 19-872): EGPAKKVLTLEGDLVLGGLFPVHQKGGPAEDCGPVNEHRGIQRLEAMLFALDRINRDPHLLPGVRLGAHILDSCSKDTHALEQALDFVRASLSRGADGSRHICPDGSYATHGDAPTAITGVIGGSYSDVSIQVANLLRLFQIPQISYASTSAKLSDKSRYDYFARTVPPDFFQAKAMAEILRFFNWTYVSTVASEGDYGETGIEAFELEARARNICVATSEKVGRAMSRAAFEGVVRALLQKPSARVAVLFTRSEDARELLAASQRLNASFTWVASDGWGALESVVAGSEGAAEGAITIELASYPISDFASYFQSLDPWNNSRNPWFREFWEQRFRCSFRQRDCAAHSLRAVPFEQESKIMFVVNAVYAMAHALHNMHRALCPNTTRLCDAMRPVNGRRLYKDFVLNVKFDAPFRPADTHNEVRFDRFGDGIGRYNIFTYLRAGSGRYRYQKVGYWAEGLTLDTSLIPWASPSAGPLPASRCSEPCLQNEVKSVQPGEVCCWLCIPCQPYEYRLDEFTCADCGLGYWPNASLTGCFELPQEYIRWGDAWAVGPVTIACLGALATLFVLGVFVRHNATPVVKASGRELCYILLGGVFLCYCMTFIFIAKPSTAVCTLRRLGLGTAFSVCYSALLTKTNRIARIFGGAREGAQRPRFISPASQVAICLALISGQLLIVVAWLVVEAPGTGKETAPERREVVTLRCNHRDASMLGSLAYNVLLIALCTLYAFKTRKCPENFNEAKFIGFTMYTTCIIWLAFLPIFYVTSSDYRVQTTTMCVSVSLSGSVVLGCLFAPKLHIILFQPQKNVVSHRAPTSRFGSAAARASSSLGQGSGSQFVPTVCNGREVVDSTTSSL

Row | Compound | locomotor activity (reversal of reserpine-induced akinesia) [1] | effect on the response of mGluR4 to agonists (potentiation) (human mGluR4 [2]; concentrations up to 30 μM) | IC50 (human mGluR4 [2]; read-out: mGluR4 antagonist IC50, at higher concentrations) | effect on L-AP4-induced inhibition of transmission at SC-CA1 synapse [3] | activation or potentiation of responses of other mGluR subtypes (any other mGluR subtype) | effect on striato-pallidal transmission, co-application with L-AP4 (striato-pallidal synapse; 30 μM PHCCC and 1 μM L-AP4, p<0.01, n=4) | effect on striato-pallidal transmission, compound alone (striato-pallidal synapse) | increase of the maximal effect of L-AP4 (mGluR4) | effect on L-AP4-induced inhibition of transmission at LPP-DG synapse [4] | block of response of mGluR8 to glutamate (mGluR8) | block of response of mGluR1b to glutamate (mGluR1b) | block of response of mGluR5a to glutamate (mGluR5a) | block of response of mGluR2 to glutamate (mGluR2) | EC50 (human mGluR4 [5]; in the absence of PHCCC) | EC50 (human mGluR4 [5]; with 10 μM PHCCC) | EC50 (rat mGluR4; with 10 μM PHCCC) | EC50 (rat mGluR4; without PHCCC)
1 | 7-(hydroxylimino)cyclopropa[b]chromen-1a-carboxamide ethyl ester [CPCCOEt] | no effect | no mGluR4 potentiator activity; also recorded: did not have any effect | > 100000 nM | – | – | – | – | – | – | – | – | – | – | – | – | – | –
2 | N-phenyl-7-(hydroxylimino)cyclopropa[b]chromen-1a-carboxamide [PHCCC] | overcome inhibition of movement; also recorded: significant increase in locomotor activity | – | – | no significant effect | does not potentiate or activate any other mGluR subtype; also recorded: did not activate or potentiate | potentiate the effect of the mGluR4 agonist L-AP4 in inhibiting transmission; also recorded: marked inhibition | no effect | approximately two-fold | no significant effect | partially blocked | partially blocked | partially blocked | partially blocked | – | – | – | –
3 | NC(CCP(=O)(O)O)C(=O)O [L-AP4] | – | – | – | – | – | – | small but significant inhibition | – | – | – | – | – | – | 484 ± 45 nM | 71.4 ± 2.9 nM | 67.6 ± 5.2 nM | 832 ± 100 nM

Source: patent US20100144858A1, “Treatment of movement disorders with a metabotropic glutamate 4 receptor positive allosteric modulator” (priority 2003, published 2010)
